Consider 20 molecules from patent US9957264B2 (Merck Sharp & Dohme Corp., priority 2013, dated 2018).

Assay [1] concerns the target JAK1 (recombinant purified GST-tagged catalytic domain) (Homo sapiens (Human), UniProt P23458). The assay is described as follows: Jak Biochemical HTRF Assay (JAK1). Particulars: [ATP] 31.8 μM. The method in brief:
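GST-tagged human catalytic domains of JAK1 or JAK2 phosphorylated a biotinylated peptide substrate for 120 min at room temperature after ATP addition. Reaction quenched with EDTA stop buffer containing streptavidin-Dylight 650 and Eu-pY20 antibody; HTRF 665/615 nm ratio normalized to untreated controls, IC50 from 4-parameter fit.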
(TR-FRET usually uses a lanthanide donor and a delayed reading to cut background.)

In assay [2] the target is JAK2 (recombinant purified GST-tagged catalytic domain) (Homo sapiens (Human), UniProt O60674). Nature of the assay: Jak Biochemical HTRF Assay (JAK2). The following applies: [ATP] 8.5 μM.
Sequence of JAK2 (recombinant purified GST-tagged catalytic domain) (O60674 849-1124): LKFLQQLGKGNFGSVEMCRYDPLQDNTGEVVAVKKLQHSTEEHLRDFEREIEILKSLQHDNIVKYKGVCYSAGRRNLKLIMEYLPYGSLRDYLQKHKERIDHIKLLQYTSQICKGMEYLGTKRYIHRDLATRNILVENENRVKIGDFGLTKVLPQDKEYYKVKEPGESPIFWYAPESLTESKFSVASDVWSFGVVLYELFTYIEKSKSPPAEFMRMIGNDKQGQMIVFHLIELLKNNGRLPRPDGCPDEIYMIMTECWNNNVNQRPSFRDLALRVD

SMILES strings stand for the structures. Bounds are passed on as bounds.

Sequence of JAK1 (recombinant purified GST-tagged catalytic domain) (P23458 875-1153): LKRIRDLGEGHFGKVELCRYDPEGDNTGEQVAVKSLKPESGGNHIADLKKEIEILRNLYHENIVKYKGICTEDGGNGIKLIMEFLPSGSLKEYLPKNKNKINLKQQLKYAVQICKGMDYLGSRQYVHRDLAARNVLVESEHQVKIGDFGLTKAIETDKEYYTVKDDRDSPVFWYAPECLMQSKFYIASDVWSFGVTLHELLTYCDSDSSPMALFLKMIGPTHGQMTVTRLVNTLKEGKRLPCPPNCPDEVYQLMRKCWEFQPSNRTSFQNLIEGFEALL

Usually IC50 stands for the point on the concentration scale where inhibition reaches its midpoint. Take `CC(C)NC(C)(C)c1ccc(Nc2nn(C3(CC#N)CCN(C(=O)OC(C)(C)C)CC3)c3cc[nH]c(=O)c23)cc1` [Example 5-276, tert-butyl 4-(cyanomethyl)-4-{3-[(4-{1-methyl-1-[(1-methylethyl)amino]ethyl}phenyl)amino]-4-oxo-4,5-dihydro-1H-pyrazolo[4,3-c]pyridin-1-yl}piperidine-1-carboxylate]: the values for the IC50 in assay [1] and in assay [2] were 0.57 nM and 0.4 nM, respectively.

Take `CC(C)(C)NS(=O)(=O)c1ccc(Nc2nn([C@]3(CC#N)CCCOC3)c3cc[nH]c(=O)c23)cc1` [Example 5-184, N-tert-butyl-4-({1-[(3S)-3-(cyanomethyl)tetrahydro-2H-pyran-3-yl]-4-oxo-4,5-dihydro-1H-pyrazolo[4,3-c]pyridin-3-yl}amino) benzenesulfonamide]: the IC50 in assay [1] came to 0.2 nM; in assay [2], 0.6 nM.

Consider `CN(C)S(=O)(=O)c1ccc(Nc2nn(C3(CC#N)CCN(Cc4ccc(N5CCCC5=O)cc4)CC3)c3cc[nH]c(=O)c23)cc1` [Example 8-14, 4-[(1-{4-(cyanomethyl)-1-[4-(2-oxopyrrolidin-1-yl)benzyl]piperidin-4-yl}-4-oxo-4,5-dihydro-1H-pyrazolo[4,3-c]pyridin-3-yl)amino]-N,N-dimethylbenzenesulfonamide], for which the values for the concentration for half-maximal inhibition (IC50) in assay [1] and in assay [2] were 0.73 nM and 2.84 nM, respectively.

In the case of `N#CCC1(n2nc(Nc3ccc(F)cc3)c3c(=O)[nH]ccc32)CCNCC1` [Example 6, (4-{3-[(4-fluorophenyl)amino]-4-oxo-4,5-dihydro-1H-pyrazolo[4,3-c]pyridin-1-yl}piperidin-4-yl)acetonitrile], the IC50 in assay [1] was 421 nM; in assay [2], > 1500 nM.

For `CC(C)NC(c1ccc(Nc2nn([C@]3(CC#N)CC[C@@H](C(=O)OC(C)(C)C)OC3)c3cc[nH]c(=O)c23)cc1)C(F)(F)F` (single isomer, unassigned) [Example 5-209, (2S,5S)-tert-butyl 5-(cyanomethyl)-5-(4-oxo-3-((4-((R or S)-2,2,2-trifluoro-1-(isopropylamino)ethyl)phenyl)amino)-4,5-dihydro-1H-pyrazolo [4,3-c]pyridin-1-yl)tetrahydro-2H-pyran-2-carboxylate], the IC50 in assay [1] worked out at 0.32 nM; in assay [2] it was 0.35 nM.

`CC(C)(C)OC(=O)[C@@H]1CC[C@@](CC#N)(n2nc(Nc3ccc(C4(C(F)(F)F)CCCCN4)cc3)c3c(=O)[nH]ccc32)CO1` (single isomer, unassigned) [Example 5-287, (2S,5S)-tert-butyl 5-(cyanomethyl)-5-(4-oxo-3-((4-((S or R)-2-(trifluoromethyl)piperidin-2-yl)phenyl)amino)-4,5-dihydro-1H-pyrazolo[4,3-c]pyridin-1-yl)tetrahydro-2H-pyran-2-carboxylate]: the results for the IC50 in assay [1] and in assay [2] were 0.25 nM and 0.35 nM, respectively.

With `CN1Cc2cc(Nc3nn(C4(CC#N)CCCCC4)c4cc[nH]c(=O)c34)ccc2S1(=O)=O` [Example 5-81, 2-(1-(3-((2-methyl-1,1-dioxido-2,3-dihydrobenzo[d]isothiazol-5-yl)amino)-4-oxo-4,5-dihydro-1H-pyrazolo[4,3-c]pyridin-1-yl)cyclohexyl)acetonitrile], the figures for the IC50 in assay [1] and in assay [2] were 0.24 nM and 3.73 nM, respectively.

With `CC(C)(C)OC(=O)N1CCC(CC#N)(n2nc(Nc3ccc(S(=O)(=O)N4CCOCC4)cc3)c3c(=O)[nH]ccc32)CC1` [Example 5-294, tert-butyl 4-(cyanomethyl)-4-(3-((4-(morpholinosulfonyl)phenyl)amino)-4-oxo-4,5-dihydro-1H-pyrazolo[4,3-c]pyridin-1-yl)piperidine-1-carboxylate], the IC50 in assay [1] was 0.22 nM; in assay [2] it was 0.37 nM.

Take `CC(C)OC(=O)N1CCC(CC#N)(n2nc(Nc3ccc(S(=O)(=O)N(C)C)cc3)c3c(=O)[nH]ccc32)CC1` [Example 10-6, isopropyl 4-(cyanomethyl)-4-(3-((4-(N,N-dimethylsulfamoyl)phenyl)amino)-4-oxo-4,5-dihydro-1H-pyrazolo[4,3-c]pyridin-1-yl)piperidine-1-carboxylate]: the values for the IC50 in assay [1] and in assay [2] were 0.12 nM and 0.27 nM, respectively.

In the case of `CN(C)C(c1ccc(Nc2nn([C@]3(CC#N)CC[C@@H](C(=O)OC(C)(C)C)OC3)c3cc[nH]c(=O)c23)cc1)C(F)(F)F` (single isomer, unassigned) [Example 5-214, (2S,5S)-tert-butyl 5-(cyanomethyl)-5-(3-((4-((R or S)-1-(dimethylamino)-2,2,2-trifluoroethyl)phenyl)amino)-4-oxo-4,5-dihydro-1H-pyrazolo[4,3-c]pyridin-1-yl)tetrahydro-2H-pyran-2-carboxylate], the IC50 amounted to 0.2 nM in assay [1] and 0.32 nM in assay [2].

For the molecule `Cc1cc(Nc2nn([C@]3(CC#N)CC[C@@H](C(=O)OC(C)(C)C)OC3)c3cc[nH]c(=O)c23)ccc1C(=O)N(C)CC(F)(F)F` [Example 20-15, (2S,5S)-tert-butyl 5-(cyanomethyl)-5-(3-((3-methyl-4-(methyl(2,2,2-trifluoroethyl)carbamoyl)phenyl)amino)-4-oxo-4,5-dihydro-1H-pyrazolo[4,3-c]pyridin-1-yl)tetrahydro-2H-pyran-2-carboxylate], the IC50 came to 0.19 nM in assay [1] and 0.51 nM in assay [2].

For `Cc1cc(Nc2nn([C@@]3(CC#N)CCOC[C@H]3F)c3cc[nH]c(=O)c23)ccc1C(=O)N1CCOCC1` (single isomer, unassigned) [Example 5-257, 2-((3S,4S or 3R,4R)-3-fluoro-4-(3-(3-methyl-4-(morpholine-4-carbonyl)phenylamino)-4-oxo-4,5-dihydropyrazolo[4,3-c]pyridin-1-yl)-tetrahydro-2H-pyran-4-yl)acetonitrile], the IC50 in assay [1] was determined as 2.08 nM; in assay [2], 3.17 nM.

With `CC(C)(C)OC(=O)[C@@H]1CC[C@@](CC#N)(n2nc(Nc3ccc(C(O)C(F)(F)F)cc3)c3c(=O)[nH]ccc32)CO1` (single isomer, unassigned) [Example 5-168, (2S,5S)-tert-butyl 5-(cyanomethyl)-5-(4-oxo-3-((4-((S or R)-2,2,2-trifluoro-1-hydroxyethyl)phenyl)amino)-4,5-dihydro-1H-pyrazolo [4,3-c]pyridin-1-yl)tetrahydro-2H-pyran-2-carboxylate], the IC50 in assay [1] came to 0.12 nM; in assay [2], 0.51 nM.

For the molecule `CC(c1ccc(Nc2nn([C@]3(CC#N)CC[C@@H](C(=O)OC(C)(C)C)OC3)c3cc[nH]c(=O)c23)cc1)N1CCCC1` (single isomer, unassigned) [Example 5-212, (2S,5S)-tert-butyl 5-(cyanomethyl)-5-(4-oxo-3-((4-((S or R)-1-(pyrrolidin-1-yl)ethyl)phenyl)amino)-4,5-dihydro-1H-pyrazolo [4,3-c]pyridin-1-yl) tetrahydro-2H-pyran-2-carboxylate], the 50% inhibitory concentration (IC50) in assay [1] came to 0.22 nM; in assay [2], 0.15 nM.

In the case of `CC(C)(C)S(=O)(=O)c1ccc(Nc2nn(C3(CC#N)CCOCC3)c3cc[nH]c(=O)c23)cc1` [Example 5-252, 2-(4-(3-((4-(tert-butylsulfonyl)phenyl)amino)-4-oxo-4,5-dihydro-1H-pyrazolo[4,3-c]pyridin-1-yl)tetrahydro-2H-pyran-4-yl)acetonitrile], the IC50 was 0.34 nM in assay [1] and 0.84 nM in assay [2].

Turning to `CC1CCN1S(=O)(=O)c1ccc(Nc2nn([C@]3(CC#N)CCCOC3)c3cc[nH]c(=O)c23)cc1` (single isomer, unassigned) [Example 5-109, [(3S)-3-{3-[(4-{[(2S or 2R)-2-methylazetidin-1-yl]sulfonyl}phenyl)amino]-4-oxo-4,5-dihydro-1H-pyrazolo[4,3-c]pyridin-1-yl}tetrahydro-2H-pyran-3-yl]acetonitrile], the IC50 in assay [1] turned out to be 0.25 nM; in assay [2], 0.29 nM.

Consider `CN(C)S(=O)(=O)c1ccc(Nc2nn(C3(CC#N)CCN(C(=O)OC4CCSCC4)CC3)c3cc[nH]c(=O)c23)cc1` [Example 11-4, tetrahydro-2H-thiopyran-4-yl 4-(cyanomethyl)-4-(3-((4-(N,N-dimethylsulfamoyl)phenyl)amino)-4-oxo-4,5-dihydro-1H-pyrazolo[4,3-c]pyridin-1-yl)piperidine-1-carboxylate], for which the 50% inhibitory concentration (IC50) in assay [1] was 0.27 nM; in assay [2], 1.45 nM.

Turning to `COC(=O)N1CCC(CC#N)(n2nc(Nc3ccc4c(c3)CN(CC3CC3)S4(=O)=O)c3c(=O)[nH]ccc32)CC1` [Example 5-74, methyl 4-(cyanomethyl)-4-(3-{[2-(cyclopropylmethyl)-1,1-dioxo-2,3-dihydro-1,2-benzothiazol-5-yl]amino}-4-oxo-1H,4H,5H-pyrazolo [4,3-c]pyridin-1-yl) piperidine-1-carboxylate], the IC50 stood at 0.06 nM in assay [1] and 0.27 nM in assay [2].

For `Cc1cc(Nc2nn(C3(CC#N)CCN(C(=O)OC(C)(C)C)CC3)c3cc[nH]c(=O)c23)ccc1C(=O)N1C2CCC1COC2` [Example 21-13, tert-butyl 4-(cyanomethyl)-4-{3-[(5-methyl-4-{3-oxa-8-azabicyclo[3.2.1]octan-8-ylcarbonyl}cyclohexa-1,3,5-trien-1-yl)amino]-4-oxo-5H-pyrazolo[4,3-c]pyridin-1-yl}piperidine-1-carboxylate], the IC50 in assay [1] worked out at 0.27 nM; in assay [2], 0.2 nM.

For the molecule `CN(C)S(=O)(=O)c1ccc(Nc2nn(C3(CC#N)CCN(C(=O)c4cccc(Cl)c4)CC3)c3cc[nH]c(=O)c23)cc1` [Example 9-14, 4-[(1-{1-[(3-chlorophenyl)carbonyl]-4-(cyanomethyl)piperidin-4-yl}-4-oxo-4,5-dihydro-1H-pyrazolo[4,3-c]pyridin-3-yl)amino]-N,N-dimethylbenzenesulfonamide], the IC50 worked out at 0.23 nM in assay [1] and 1.96 nM in assay [2].
